Reference: US20250188123A1, “PROTEASE INHIBITORS” (Regents of the University of Minnesota, priority 2022, published 2025)
Entries after “also recorded” stand apart in the source; their conditions may differ. Where two headings read alike, the source gives them in different places.

Molecular target: T1, recombinant human caspase-2 (cleavage of tau at D314) (Homo sapiens, UniProt P42575)
T1 construct: human caspase-2 p19 and p12 subunits were cloned as two separate open reading frames in the pCOLADuet-1 vector; made in house; host or cells: E. coli BL21(DE3)
T1 sequence (P42575 170-325 limits assumed): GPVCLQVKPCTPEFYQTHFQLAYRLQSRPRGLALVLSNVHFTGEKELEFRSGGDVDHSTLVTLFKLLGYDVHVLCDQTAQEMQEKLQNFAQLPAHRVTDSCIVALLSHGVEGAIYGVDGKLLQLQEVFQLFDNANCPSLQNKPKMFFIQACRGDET
T1 sequence (P42575 348-452 limits assumed): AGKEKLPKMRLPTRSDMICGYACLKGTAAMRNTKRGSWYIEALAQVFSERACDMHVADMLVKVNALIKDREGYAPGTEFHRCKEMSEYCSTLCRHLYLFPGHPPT
Assay: In vitro caspase-2-catalyzed tau cleavage assay (Δtau314 production, IP/WB)
Assay type: biochemical
Conditions: for inhibition at 10 µM: read-out: inhibition of Casp2-catalyzed Δtau314 production (tau cleavage at D314)
Protocol: DNA sequences encoding human caspase-2 p19 and p12 subunits were cloned as two separate open reading frames in the pCOLADuet-1 vector (Millipore Sigma, Burlington, MA). The DNA sequence encoding human microtubule-associated protein tau 0N4R isoform was cloned in the pET28a vector (Millipore Sigma). Expression of recombinant human caspase-2 and tau was induced using 150 μM isopropyl-β-D-thiogalactopyranoside (IPTG) (Promega, Madison, WI) in the BL21(DE3) E. coli strain (Millipore Sigma) at room temperature for 16 hours while shaking at 250 rpm. Cells were then harvested via centrifugation at 6,000 g, 4° C. for 15 minutes, followed by lysis via sonication. Proteins were purified using HisPur Ni-NTA resin (Thermo Fisher Scientific, Waltham, MA) followed by HiTrap Chelating HP columns (GE Healthcare Life Sciences, Piscataway, NJ). Proteins were stored in 1× phosphate-buffered saline (pH 7.4) at 10 mg/mL (determined using a BCA assay (Thermo Fisher Scientific)), −80° C. until further use.
Purified recombinant Casp2 (final concentration during pre-incubation: 67 μM) was pre-incubated with various concentrations of inhibitory compounds at 4° C. for 72 h. Pre-treated enzyme was then incubated with purified recombinant tau at a molar ratio of 1:1 in 37° C. water bath, 1× reaction buffer (25 mM 4-(2-hydroxyethyl)-1-piperazineethanesulfonic acid (HEPES), 0.1% (w/v) 3-[(3-cholamidopropyl)dimethylammonio]-1-propanesulfonate (CHAPS), 10 mM dithiothreitol (DTT), pH 7.5) for 7 h. The final volume of each reaction was 100 μL. At the end of the 7-h incubation, 0.1% (v/v) protease inhibitor cocktail (Millipore Sigma) was added to stop the reactions.
Immediately after the reaction was stopped, the 100 μL enzyme-product mixture was diluted in 400 μL IP buffer (50 mM Tris-HCl (pH 7.4) and 150 mM NaCl, containing 0.1 mM phenylmethylsulfonyl fluoride, 0.2 mM 1,10-phenanthroline monohydrate, and protease inhibitor cocktail (Millipore Sigma)), and then incubated with 10 μg of Δtau314-specific monoclonal antibody 4F3 and 50 μL of Protein G Sepharose 4 Fast Flow resin (GE Healthcare) at 4° C. for 14-16 h. Subsequent resin wash and protein elution were performed as described previously (Liu P, et al., Scientific Reportsm 2020, 10, 3869). WB was performed according to a previously published protocol (Liu P, et al., Acta Neuropathologica Communications, 2019; 7, 111).

Question: Which “inhibition of Casp2-catalyzed Δtau314 production (tau cleavage at D314)” value (compound at 10 μM, no-compound control = 100% Δtau314, 10 µM) does the source give for CC(=O)N[C@H](C(=O)NC(CC(=O)O)C(=O)N[C@H](C(=O)N1CCc2cc(C)ccc2C1C(=O)N[C@H](C=O)CC(=O)O)C(C)C)C(C)C (stereo in doubt) [Compound 30a, (R)-3-((S)-2-acetamido-3-methylbutanamido)-4-(((S)-1-((S)-1-(((S)-1-carboxy-3-oxopropan-2-yl)carbamoyl)-6-methyl-3,4-dihydroisoquinolin-2(1H)-yl)-3-methyl-1-oxobutan-2-yl)amino)-4-oxobutanoic acid, reference compound] here?
Answer: no inhibition; also recorded: did not inhibit

Question: Cc1ccc2c(c1)CCN(C(=O)[C@@H](NC(=O)[C@H](CCCC(=O)O)NC(=O)C1Cc3ccccc3N1)C(C)C)[C@@H]2C(=O)N[C@H](C#N)CC(=O)O (stereo partly drawn) [Compound 1, (8)-6-(((S)-1-((8)-1-(((S)-2-carboxy-1-cyanoethyl)carbamoyl)-6-methyl-3,4-dihydroisoquinolin-2(1H)-yl)-3-methyl-1-oxobutan-2-yl)amino)-5-((S)-indoline-2-carboxamido)-6-oxohexanoic acid] was tested. Which IC50 did it give?
Answer: 2.02 ± 0.19 µM

Question: And the inhibition at 10 µM?
Answer: 96%

Question: For CC(=O)N[C@H](C(=O)N[C@@H](CC(=O)O)C(=O)N[C@H](C(=O)N1CCc2cc(C)ccc2[C@H]1C(=O)N[C@H](C=O)CC(=O)O)C(C)C)C(C)C [Compound 30b, (S)-3-((S)-2-acetamido-3-methylbutanamido)-4-(((S)-1-((S)-1-(((S)-1-carboxy-3-oxopropan-2-yl)carbamoyl)-6-methyl-3,4-dihydroisoquinolin-2(1H)-yl)-3-methyl-1-oxobutan-2-yl)amino)-4-oxobutanoic acid, reference compound], which inhibition at 10 µM (compound at 10 μM, no-compound control = 100% Δtau314) is on record?
Answer: 68%
